Earlier results as cited in US20230025452A1, “ANTICANCER COMBINATION THERAPY” (Boehringer Ingelheim International GmbH, priority 2017, published 2023).

What was measured:
[1] = system: solid tumor xenograft models and acute lymphoblastic leukemia (ALL) xenograft models; settings: Carol et al. 2013
[2] = system: human acute myeloid leukemia (AML) and human prostate tumor xenograft models harboring p53 wild-type; settings: Tovar et al. 2013

CCOc1cc(C(C)(C)C)ccc1C1=N[C@@](C)(c2ccc(Cl)cc2)[C@@](C)(c2ccc(Cl)cc2)N1C(=O)N1CCN(CCCS(C)(=O)=O)CC1 [RG-7112]
efficacy ([1]; ALL xenograft models with MLL rearrangement): particularly efficacious | tumor growth inhibition ([1]; solid tumor xenograft models): induced tumor growth inhibition | antiproliferative and proapoptotic activity [2]: antiproliferative and proapoptotic activity
